For test [1], the target named is rat orexin 1 receptor (Rattus norvegicus, UniProt P56718). As to the kind of experiment: Rat orexin 1 receptor radioligand binding. The following applies: rat orexin 1 receptor; averages of 2-20 runs; read-out: rOX1 Ki. The method in brief:
(§1)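 Competition binding with the tritiated thiazolyl-pyrrolidinyl-methanone radioligand in PBS on homogenized rat or human OX1R-expressing cell suspensions, ≤0.1% DMSO; nonspecific binding defined with 10 μM almorexant. Bound radioactivity read by scintillation after filtration; IC50 from one-site competition fit, converted to Ki using pre-determined radioligand Kd.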

Test [2] addresses human orexin 1 receptor (Homo sapiens, UniProt O43613). As to the kind of experiment: Human orexin 1 receptor radioligand binding. The settings on record: human orexin 1 receptor; averages of 2-20 runs; read-out: hOX1 Ki. The method, boiled down: as §1
Test [3] deals with human orexin 2 receptor (Homo sapiens (Human), UniProt O43614). As to the kind of experiment: Human orexin 2 receptor radioligand binding. The following applies: human orexin 2 receptor; averages of 2-20 runs; read-out: hOX2 Ki. The method in brief:
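HEK293 cells stably expressing human OX2 receptor, homogenized, incubated with [3H]-EMPA and compounds (DMSO ≤0.1%); nonspecific binding with 10 μM almorexant. Filter-bound radioactivity counted by scintillation; IC50 from one-site competition fit of triplicates, Ki from IC50 and predetermined radioligand Kd, averaged over 2-20 runs.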

The structures appear in SMILES notation.

human orexin 2 receptor, sequence (O43614 whole entry): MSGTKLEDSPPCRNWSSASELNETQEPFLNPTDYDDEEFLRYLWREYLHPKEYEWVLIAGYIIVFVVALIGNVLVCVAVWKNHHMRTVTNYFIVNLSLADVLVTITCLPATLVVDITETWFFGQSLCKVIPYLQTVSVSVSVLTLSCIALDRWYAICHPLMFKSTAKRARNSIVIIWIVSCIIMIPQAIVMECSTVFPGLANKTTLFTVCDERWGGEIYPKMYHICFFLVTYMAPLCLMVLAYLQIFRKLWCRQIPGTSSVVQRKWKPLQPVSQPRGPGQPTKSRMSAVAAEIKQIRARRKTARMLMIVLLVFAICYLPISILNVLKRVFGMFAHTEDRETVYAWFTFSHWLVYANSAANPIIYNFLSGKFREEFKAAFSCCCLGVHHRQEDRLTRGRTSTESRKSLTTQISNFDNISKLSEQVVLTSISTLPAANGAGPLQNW

In the case of `Cc1ccc(-c2ncccn2)c(C(=O)N2C[C@H]3C[C@@H](Nc4ccc(C(F)(F)F)cn4)[C@@H]2C3)n1` [Example 150, (6-methyl-3-(pyrimidin-2-yl)pyridin-2-yl)((1S,4S,6R)-6-((5-(trifluoromethyl)pyridin-2-yl)amino)-2-azabicyclo[2.2.1]heptan-2-yl)methanone], the Ki is 13 nM in test [1], 9 nM in test [2] and 88 nM in test [3].

On to `O=C(c1cccnc1-n1nccn1)N1C[C@H]2C[C@@H](Nc3cnc(C(F)(F)F)cn3)[C@@H]1C2` [Example 188, (2-(2H-1,2,3-triazol-2-yl)pyridin-3-yl)((1S,4S,6R)-6-((5-(trifluoromethyl)pyrazin-2-yl)amino)-2-azabicyclo[2.2.1]heptan-2-yl)methanone], for which the Ki was 191 nM in test [1], 210 nM in test [2] and more than 10000 nM in test [3].

Regarding `O=C(c1ccccc1-c1ncccn1)N1C[C@H]2C[C@@H](Oc3cnc(C(F)(F)F)cn3)[C@@H]1C2` [Example 130, (2-(pyrimidin-2-yl)phenyl)((1S,4R,6R)-6-((5-(trifluoromethyl)pyrazin-2-yl)oxy)-2-azabicyclo[2.2.1]heptan-2-yl)methanone], the Ki in test [1] turned out to be 29 nM; in test [2], 27 nM; in test [3] it was 3500 nM.

Consider `O=C(c1cccc(F)c1-c1ncccn1)N1C[C@H]2C[C@@H](Nc3ncc(Cl)cn3)[C@@H]1C2` [Example 236, ((1S,4S,6R)-6-((5-chloropyrimidin-2-yl)amino)-2-azabicyclo[2.2.1]heptan-2-yl)(3-fluoro-2-(pyrimidin-2-yl)phenyl)methanone], for which the Ki was found to be 10 nM in test [1], 9 nM in test [2] and 1020 nM in test [3].

For `Cc1ccc(-n2nccn2)c(C(=O)N2C[C@H]3C[C@@H](Nc4nc5ccccc5o4)[C@@H]2C3)n1` [Example 181, ((1S,4S,6R)-6-(benzo[d]oxazol-2-ylamino)-2-azabicyclo[2.2.1]heptan-2-yl)(6-methyl-3-(2H-1,2,3-triazol-2-yl)pyridin-2-yl)methanone], the Ki turned out to be 5 nM in test [1], 8 nM in test [2] and 163 nM in test [3].

Consider `O=C(c1cccc(F)c1-n1nccn1)N1C[C@H]2C[C@@H](Nc3ncc(Cl)cn3)[C@@H]1C2` [Example 234, ((1S,4S,6R)-6-((5-chloropyrimidin-2-yl)amino)-2-azabicyclo[2.2.1]heptan-2-yl)(3-fluoro-2-(2H-1,2,3-triazol-2-yl)phenyl)methanone], for which the inhibitory constant (Ki) in test [1] is 17 nM; in test [2], 12 nM; in test [3] it was 827 nM.

As for `O=C(c1cc(F)ccc1-c1ncccn1)N1C[C@@H]2CC[C@H]1[C@H](Nc1cnc(C(F)(F)F)cn1)C2` [Example 278, (5-fluoro-2-(pyrimidin-2-yl)phenyl)((1S,4R,6R)-6-((5-(trifluoromethyl)pyrazin-2-yl)amino)-2-azabicyclo[2.2.2]octan-2-yl)methanone], the values for the Ki in test [1], in test [2] and in test [3] were 14 nM, 7 nM and 243 nM, respectively.

Turning to `Cc1cnc(C(=O)N2C[C@H]3C[C@@H](Oc4ccc(C(F)(F)F)cn4)[C@@H]2C3)c(-c2ncccn2)c1` [Example 298], the inhibition constant Ki is 24 nM in test [1], 29 nM in test [2] and more than 10000 nM in test [3].

On to `O=C(c1ccccc1-c1ncccn1)N1C[C@H]2C[C@@H](Nc3cnc(C(F)(F)F)cn3)[C@@H]1C2` [Example 201, (2-(pyrimidin-2-yl)phenyl)((1S,4S,6R)-6-((5-(trifluoromethyl)pyrazin-2-yl)amino)-2-azabicyclo[2.2.1]heptan-2-yl)methanone], for which the Ki in test [1] is 6 nM; in test [2], 6 nM; in test [3] it was 213 nM.

`O=C(c1ccc(F)cc1-c1ncccn1)N1C[C@@H]2CC[C@H]1[C@H](Nc1cnc(C(F)(F)F)cn1)C2` [Example 277, (4-fluoro-2-(pyrimidin-2-yl)phenyl)((1S,4R,6R)-6-((5-(trifluoromethyl)pyrazin-2-yl)amino)-2-azabicyclo[2.2.2]octan-2-yl)methanone]: the inhibitory constant (Ki) in test [1] turned out to be 17 nM; in test [2], 15 nM; in test [3] it was 998 nM.

As for `O=C(c1ccc(F)cc1-c1ncccn1)N1C[C@H]2C[C@@H](Nc3cnc(C(F)(F)F)cn3)[C@@H]1C2` [Example 198, (4-fluoro-2-(pyrimidin-2-yl)phenyl)((1S,4S,6R)-6-((5-(trifluoromethyl)pyrazin-2-yl)amino)-2-azabicyclo[2.2.1]heptan-2-yl)methanone], the figures for the Ki in test [1], in test [2] and in test [3] were 11 nM, 9 nM and 1380 nM, respectively.

For `O=C(c1ccc(F)cc1-n1nccn1)N1C[C@H]2C[C@@H](Nc3ccc(C(F)(F)F)cn3)[C@@H]1C2` [Example 145, (4-fluoro-2-(2H-1,2,3-triazol-2-yl)phenyl)((1S,4S,6R)-6-((5-(trifluoromethyl)pyridin-2-yl)amino)-2-azabicyclo[2.2.1]heptan-2-yl)methanone], the values for the Ki in test [1], in test [2] and in test [3] were 17 nM, 7 nM and 934 nM, respectively.

With `Cc1ccc(-n2nccn2)c(C(=O)N2C[C@H]3C[C@@H](Nc4ncc(C(F)(F)F)cc4F)[C@@H]2C3)n1` [Example 178, ((1S,4S,6R)-6-((3-fluoro-5-(trifluoromethyl)pyridin-2-yl)amino)-2-azabicyclo[2.2.1]heptan-2-yl)(6-methyl-3-(2H-1,2,3-triazol-2-yl)pyridin-2-yl)methanone], the Ki in test [1] was found to be 6 nM; in test [2], 8 nM; in test [3], 112 nM.

Take `O=C(c1ccccc1-c1ncc(F)cn1)N1C[C@H]2C[C@@H](Oc3ccc(Cl)cn3)[C@@H]1C2` [Example 116, ((1S,4R,6R)-6-((5-chloropyridin-2-yl)oxy)-2-azabicyclo[2.2.1]heptan-2-yl)(2-(5-fluoropyrimidin-2-yl)phenyl)methanone]: the Ki in test [1] is 11 nM; in test [2] it was 12 nM; in test [3], 939 nM.

With `Cc1cnc(C(=O)N2C[C@H]3C[C@@H](Nc4ccc(C(F)(F)F)cn4)[C@@H]2C3)c(-c2ncccn2)c1` [Example 149, (5-methyl-3-(pyrimidin-2-yl)pyridin-2-yl)((1S,4S,6R)-6-((5-(trifluoromethyl)pyridin-2-yl)amino)-2-azabicyclo[2.2.1]heptan-2-yl)methanone], the results for the Ki in test [1], in test [2] and in test [3] were 14 nM, 7 nM and 4600 nM, respectively.

As to `O=C(c1cccc(F)c1-c1ncccn1)N1CC2CCC1C(Nc1cnc(C(F)(F)F)cn1)C2` (racemic) [Example 257, (R/S)-(3-fluoro-2-(pyrimidin-2-yl)phenyl)(6-((5-(trifluoromethyl)pyrazin-2-yl)amino)-2-azabicyclo[2.2.2]octan-2-yl)methanone], the Ki was 21 nM in test [1], 24 nM in test [2] and 741 nM in test [3].

`O=C(c1ccccc1-c1ncccn1)N1C[C@H]2C[C@@H](Nc3ncc(C(F)(F)F)cn3)[C@@H]1C2` [Example 230, (2-(pyrimidin-2-yl)phenyl)((1S,4S,6R)-6-((5-(trifluoromethyl)pyrimidin-2-yl)amino)-2-azabicyclo[2.2.1]heptan-2-yl)methanone]: the Ki in test [1] is 4 nM; in test [2] it was 4 nM; in test [3], 470 nM.

On to `Cc1ccc(-n2nccn2)c(C(=O)N2C[C@H]3C[C@@H](N(C)c4ccc(C(F)(F)F)cn4)[C@@H]2C3)n1` [Example 156, ((1S,4S,6R)-6-(methyl(5-(trifluoromethyl)pyridin-2-yl)amino)-2-azabicyclo[2.2.1]heptan-2-yl)(6-methyl-3-(2H-1,2,3-triazol-2-yl)pyridin-2-yl)methanone], for which the results for the Ki in test [1], in test [2] and in test [3] were 7 nM, 5 nM and 274 nM, respectively.

With `O=C(c1c(F)cccc1-n1nccn1)N1C[C@H]2C[C@@H](Oc3ccc(Br)cn3)[C@@H]1C2` [Example 109, ((1S,4R,6R)-6-((5-bromopyridin-2-yl)oxy)-2-azabicyclo[2.2.1]heptan-2-yl)(2-fluoro-6-(2H-1,2,3-triazol-2-yl)phenyl)methanone], the Ki is 6 nM in test [1], 5 nM in test [2] and 442 nM in test [3].

Consider `O=C(c1ncccc1-c1ncccn1)N1C[C@H]2C[C@@H](Oc3ccc(C(F)(F)F)cn3)[C@@H]1C2` [Example 296], for which the results for the Ki in test [1], in test [2] and in test [3] were 8 nM, 14 nM and 474 nM, respectively.

As to `CN(c1ccc(C(F)(F)F)cn1)[C@@H]1C[C@H]2C[C@@H]1N(C(=O)c1cc(F)ccc1-n1nccn1)C2` [Example 155, (5-fluoro-2-(2H-1,2,3-triazol-2-yl)phenyl)((1S,4S,6R)-6-(methyl(5-(trifluoromethyl)pyridin-2-yl)amino)-2-azabicyclo[2.2.1]heptan-2-yl)methanone], the Ki in test [1] came to 5 nM; in test [2], 3 nM; in test [3], 303 nM.

For the compound `O=C(c1cc(F)ccc1-n1nccn1)N1C[C@H]2C[C@@H](Nc3ncc(Cl)cn3)[C@@H]1C2` [Example 235, ((1S,4S,6R)-6-((5-chloropyrimidin-2-yl)amino)-2-azabicyclo[2.2.1]heptan-2-yl)(5-fluoro-2-(2H-1,2,3-triazol-2-yl)phenyl)methanone], the inhibition constant Ki came to 36 nM in test [1], 41 nM in test [2] and 1300 nM in test [3].

The values above are taken from US9611277B2 (Janssen Pharmaceutica NV, priority 2013, dated 2017).
